Experimental data as given in ChEMBL document CHEMBL1151783 (Bioorg Med Chem Lett, 2008).
≈ marks a conversion by molar mass, not a printed value. Calls of active or inactive are those of the source. The calls are words filed in the database; no cut-off is given here.

Assays:
Vero [1] = assay: Cytotoxicity against african green monkey Vero cells after 48 hrs by luminescence cell viability assay; format: cell-based; conditions: Chlorocebus sabaeus
[2] = Displacement of [3H]colchicine from bovine tubulin after 2 hrs by fluorescence polarization assay; parameters: species or system Bos taurus
Bos taurus [3] = organism: Bos taurus; assay: Inhibition of bovine tubulin polymerization at 5 uM
[4] = Membrane permeability by PAMPA; format: ADME; conditions: for Papp: read-out: permeability
[5] = Binding affinity to bovine tubulin after 2 hrs by fluorescence polarization assay; parameters: species or system Bos taurus
[6] = Solubility in phosphate buffer saline after 2 hrs; format: physicochemical; conditions: phosphate buffered saline
HeLa = assay: Cytotoxicity against human HeLa cells after 48 hrs by luminescence cell viability assay; format: functional, cell-based
HepG2 = assay: Cytotoxicity against human HepG2 cells after 48 hrs by luminescence cell viability assay; format: functional, cell-based; conditions: HepG2, 48 h
Vero [7] = assay: Cell cycle arrest in african green monkey Vero cells assessed as accumulation at G2/M phase after 18 hrs by flow cytometry using propidium iodide staining; format: functional, cell-based; conditions: Chlorocebus sabaeus
Vero [8] = assay: Induction of apoptosis in african green monkey Vero cells assessed as caspase 3/7 activity after 18 hrs […]; format: functional, cell-based; conditions: Chlorocebus sabaeus
Raji = assay: Cytotoxicity against human Raji cells after 48 hrs by luminescence cell viability assay; format: functional, cell-based
Bos taurus [9] = organism: Bos taurus; assay: Inhibition of bovine tubulin polymerization at 10 uM
Bos taurus [10] = organism: Bos taurus; assay: Binding affinity to bovine tubulin at 10 uM after 2 hrs by fluorescence polarization assay

| SMILES | EC50 (Vero [1]) | IC50 [2] | Activity (Bos taurus [3]) | Papp [4] | Kd [5] | solubility at 2 h [6] | EC50 (HeLa) | EC50 (HepG2) | EC50 (Vero [7]) | EC50 (Vero [8]) | EC50 (Raji) | Activity (Bos taurus [9]) | permeability [4] | Activity (Bos taurus [10]) |
| --- | --- | --- | --- | --- | --- | --- | --- | --- | --- | --- | --- | --- | --- | --- |
| COc1cc2c(c(OC)c1OC)-c1ccc(OC)c(=O)cc1[C@@H](NC(=O)CCCCCNC(=O)COc1ccc(/C=C/C3=[N+]4C(=Cc5ccc(-c6ccc[nH]6)n5[B-]4(F)F)C=C3)cc1)CC2 | > 10000 nM | 6400 nM | Active | < 10 ×10⁻⁶ cm/s | 7600 nM | < 10 µM | 1900 nM | 1200 nM | 6800 nM | 10500 nM | 650 nM |  |  |  |
| CC(=O)O[C@H]1C(=O)[C@@]2(C)[C@H]([C@H](OC(=O)c3ccccc3)[C@]3(O)C[C@H](OC(=O)[C@H](O)[C@@H](NC(=O)c4ccccc4)c4ccccc4)C(C)=C1C3(C)C)[C@]1(OC(C)=O)CO[C@@H]1C[C@@H]2O |  |  |  |  |  |  |  |  |  |  |  | inactive |  |  |
| COc1cc2c(c(OC)c1OC)-c1ccc(OC)c(=O)cc1[C@@H](NC(C)=O)CC2 [COLCHICINE] |  |  | Active |  |  | > 250 µM |  |  |  |  |  |  | 415 ×10⁻⁶ cm/s |  |
| COc1cc2c(c(OC)c1OC)-c1ccc(OC)c(=O)cc1[C@@H](NC(=O)CCC1=[N+]3C(=Cc4cccn4[B-]3(F)F)C=C1)CC2 | 2300 nM | 3900 nM | Active | 108 ×10⁻⁶ cm/s | 5800 nM | 32 µM (≈ 19.3 µg/mL) | 360 nM | 180 nM | 960 nM | 2600 nM | 138 nM |  |  | Active |
